One assay relates to P388. Nature of the assay: Cytotoxicity against mouse P388 cells assessed as concentration required for 50% inhibition. The assay is classed as functional.
For the next assay, the system named is BXPC-3. The experiment in a line: Cytotoxicity against human BXPC3 cells assessed as concentration required for 50% inhibition. The class given is functional.
The subject of another assay is NCI-H460. The experiment in a line: Cytotoxicity against human NCIH460 cells assessed as concentration required for 50% inhibition. The class given is functional.
In a further assay the test system is KM-20L2. The experiment in a line: Cytotoxicity against human KM20L2 cells assessed as concentration required for 50% inhibition. The class given is functional.
In a further assay the test system is OVCAR-3. The experiment in a line: Cytotoxicity against human OVCAR-3 cells assessed as concentration required for 50% inhibition. The assay is classed as functional.
The test system of another assay is DU-145. Nature of the assay: Cytotoxicity against human DU145 cells assessed as concentration required for 50% inhibition. The class given is functional.
The subject of a further assay is SF-295. The experiment in a line: Cytotoxicity against human SF295 cells assessed as concentration required for 50% inhibition. The class given is functional.
For another assay, the system named is HL-60. Nature of the assay: Cytotoxicity against human HL60 cells. The class given is functional, cell-based.
Another assay deals with HeLa. Nature of the assay: Cytotoxicity against human HeLa cells. The class given is functional, cell-based.
The test system of a further assay is A549. Nature of the assay: Cytotoxicity against human A549 cells. The class given is functional, cell-based.
The next assay relates to MCF7. Nature of the assay: Cytotoxicity against human MCF7 cells assessed as concentration required for 50% inhibition. The assay is classed as functional.
The next assay relates to SF-268. Nature of the assay: Cytotoxicity against human SF268 cells assessed as concentration required for 50% inhibition. The assay is classed as functional.

Converted amounts (≈) assume the structure as drawn. Starred links: 1 amine or outer side, 2 acyl side, 3 side chain; linkers in the order of their positions; H or OH if unused. Positions of bridges follow the written chain, without caps; N, C: chain ends. Non-standard residues stand in square brackets, D forms with d. Residues, ends and D or L forms follow the SMILES beside them. Chains are numbered I, II in the order given. Actinocin(1to9) = Cc1c2oc3c(C)ccc(C(=O)[*:2])c3nc-2c(C(=O)[*:1])c(N)c1=O; NMeV = CN[C@H](C(=O)O)C(C)C; Sar = CNCC(=O)O Bounds are passed on as bounds.

On to `COc1c(C)c2c(c(O)c1C/C=C(C)/C=C/C(=O)O)C(=O)OC2`, for which the Activity in the assay with P388 amounted to 0.11 µg/mL.
`COc1cc([C@@H]2c3cc4c(c(O[C@@H]5O[C@H](CO)[C@@H](O)[C@H](O)[C@H]5O)c3C[C@H]3COC(=O)[C@@H]32)OCO4)cc(OC)c1OC`: the Activity was more than 1 µg/mL with BXPC-3; 0.28 µg/mL in the assay with NCI-H460; more than 1 µg/mL in the assay with KM-20L2; 0.85 µg/mL in the assay with OVCAR-3; more than 1 µg/mL with DU-145; 0.21 µg/mL with P388. The Activity with SF-295 is 0.27 µg/mL.
In general, IC50 refers to the concentration that gives 50% inhibition. A high value points to lower potency. Regarding `CS[C@@H]1[C@H]2C(=O)N(C)[C@@H](C(C)C)C(=O)OC[C@@H](NC(=O)c3cnc4ccccc4n3)C(=O)N[C@@H](C)C(=O)N(C)[C@@H](C[S+]1[O-])C(=O)N(C)[C@@H](C(C)C)C(=O)OC[C@@H](NC(=O)c1cnc3ccccc3n1)C(=O)N[C@@H](C)C(=O)N2C` (stereo not given in full), the IC50 in the assay with HL-60, with HeLa and with A549 was 0.2 µg/mL (≈ 0.179 µM) throughout.
Take `CC[C@H](C)[C@@H]1NC(=O)[C@H](CC(C)C)NC(=O)[C@@H]2CCCN2C(=O)[C@H](C(C)C)NC(=O)[C@H](Cc2ccc(O)cc2)NC(=O)[C@@H]2CCCN2C(=O)[C@@H]2CCCN2C(=O)[C@H](CC(C)C)NC1=O` [AXINASTATIN 5] (cyclo(ILPPYVPL)): the Activity in the assay with BXPC-3 was determined as 0.68 µg/mL; with MCF7, 1.4 µg/mL; with NCI-H460 it was 0.82 µg/mL; in the assay with KM-20L2, 0.28 µg/mL; with SF-268 it was 1.8 µg/mL; in the assay with DU-145 it was 0.87 µg/mL. Also, in the assay on P388, the Activity turned out to be 1.9 µg/mL.
As to `CCCCCCCCCCCCCC(=O)O[C@H]1CC[C@H](NC(=O)[C@H](OC)[C@H](O)[C@@H](O)[C@H](O)/C=C/C(C)C)C(=O)NC1` [BENGAMIDE A], the Activity in the assay with BXPC-3 is 0.027 µg/mL; with NCI-H460 it was 0.00054 µg/mL; in the assay on KM-20L2, 0.0049 µg/mL; with OVCAR-3, 0.01 µg/mL; with DU-145, 0.0056 µg/mL; in the assay on P388 it was 0.12 µg/mL. Moreover, in the assay with SF-295, the Activity turned out to be 0.001 µg/mL.
Regarding `CCCCCCCCCCCCCC(=O)O[C@@H](c1cnco1)c1nc([C@@H](O)C[C@@H](O)[C@@H](O)[C@@H](C)O)co1` [BENGAZOLE A], the Activity with BXPC-3 amounted to 0.14 µg/mL; in the assay with NCI-H460, 0.21 µg/mL; in the assay with KM-20L2, 0.0031 µg/mL; with OVCAR-3, 0.28 µg/mL; in the assay on DU-145, 0.15 µg/mL; in the assay on P388, 0.14 µg/mL. The Activity with SF-295 was found to be 0.19 µg/mL.
Regarding `CC(C)CCCCCCCCCCCC(=O)O[C@@H](c1cnco1)c1nc([C@@H](O)C[C@@H](O)[C@@H](O)[C@@H](C)O)co1` [BENGAZOLE B], the Activity in the assay on BXPC-3 came to 0.18 µg/mL; with NCI-H460, 0.2 µg/mL; with KM-20L2 it was 0.33 µg/mL; in the assay with OVCAR-3 it was 0.37 µg/mL; in the assay on DU-145 it was 0.15 µg/mL; in the assay on P388, 0.053 µg/mL. Besides, the Activity with SF-295 was 0.19 µg/mL.
Regarding `CCCCCCCCCCCCCCC(=O)O[C@@H](c1cnco1)c1nc([C@@H](O)C[C@@H](O)[C@@H](O)[C@@H](C)O)co1` [BENGAZOLE E], the Activity came out at 0.081 µg/mL in the assay on BXPC-3; 0.14 µg/mL in the assay on NCI-H460; 0.18 µg/mL in the assay on KM-20L2; 0.16 µg/mL with OVCAR-3; 0.11 µg/mL with DU-145; 0.074 µg/mL with P388. Besides, in the assay with SF-295, the Activity amounted to 0.13 µg/mL.
As to `COc1cc([C@@H]2c3cc4c(c(O)c3C[C@H]3COC(=O)[C@@H]32)OCO4)cc(OC)c1OC` [BETA-PELTATIN A], the Activity in the assay with BXPC-3 was 0.0012 µg/mL; in the assay with NCI-H460, 0.00077 µg/mL; in the assay with KM-20L2 it was 0.0076 µg/mL; in the assay with OVCAR-3, 0.00055 µg/mL; with DU-145, 0.0021 µg/mL; in the assay with P388, 0.0031 µg/mL. Moreover, the Activity in the assay with SF-295 is 0.0004 µg/mL.
In the case of `C[C@H]1CCC/C=C/[C@@H]2C[C@H](O)C[C@H]2[C@H](O)/C=C/C(=O)O1` [BREFELDIN A], the Activity with BXPC-3 worked out at 0.07 µg/mL; with MCF7, 0.047 µg/mL; with NCI-H460, 0.28 µg/mL; in the assay on KM-20L2, 0.022 µg/mL; in the assay with SF-268, 0.21 µg/mL; in the assay on OVCAR-3 it was 0.041 µg/mL. Moreover, the figures for the Activity in the assay on DU-145, with P388 and in the assay with SF-295 were 0.13 µg/mL, 0.23 µg/mL and 0.38 µg/mL, respectively.
In the case of `CC[C@H]1CN2CCc3cc(OC)c(OC)cc3[C@@H]2C[C@@H]1C[C@H]1NCCc2cc(O)c(OC)cc21` [CEPHAELINE], the Activity with BXPC-3 was 0.024 µg/mL; in the assay on NCI-H460, 0.022 µg/mL; in the assay with KM-20L2, 0.022 µg/mL; in the assay on OVCAR-3, 0.032 µg/mL; with DU-145, 0.0098 µg/mL; in the assay with P388, 0.0027 µg/mL. In the assay on SF-295, the Activity is 0.018 µg/mL.
As for `Cc1c2oc3c(C)ccc(C(=O)N[C@@H]4C(=O)N[C@H](C(C)C)C(=O)N5CCC[C@H]5C(=O)N(C)CC(=O)N(C)[C@@H](C(C)C)C(=O)O[C@@H]4C)c3nc-2c(C(=O)N[C@@H]2C(=O)N[C@H](C(C)C)C(=O)N3CCC[C@H]3C(=O)N(C)CC(=O)N(C)[C@@H](C(C)C)C(=O)O[C@@H]2C)c(N)c1=O` [DACTINOMYCIN] (I: T[dV]P[Sar][NMeV] / II: T[dV]P[Sar][NMeV]; ester I:1-I:C, II:1-II:C; linker I:N-II:N via Actinocin(1to9)), the Activity in the assay with P388 is less than 0.001 µg/mL.
Consider `O=c1c(-c2ccc(O)cc2)coc2cc(O)ccc12` [DAIDZEIN], for which the Activity is 6.2 µg/mL with BXPC-3; 5.1 µg/mL in the assay with MCF7; more than 10 µg/mL in the assay with NCI-H460; 8.8 µg/mL with KM-20L2; 4.4 µg/mL in the assay with SF-268; 7.3 µg/mL with DU-145.
On to `NC1=N/C(=C2/CCNC(=O)c3[nH]ccc32)C(=O)N1` [DEBROMOHYMENIALDISINE], for which the Activity with P388 amounted to 5 µg/mL.
As to `COc1cc([C@@H]2c3cc4c(cc3C[C@H]3COC(=O)[C@@H]32)OCO4)cc(OC)c1OC` [DESOXYPODOPHYLLOTOXIN], the Activity in the assay with BXPC-3 was determined as 0.00044 µg/mL; with NCI-H460, 0.0018 µg/mL; in the assay on KM-20L2, 0.0014 µg/mL; in the assay with OVCAR-3, 0.0027 µg/mL; in the assay on DU-145 it was 0.0017 µg/mL; in the assay with P388 it was 0.029 µg/mL. Besides, the Activity in the assay on SF-295 was 0.00056 µg/mL.
`CS[C@H]1SC[C@H]2C(=O)N(C)[C@@H](C(C)C)C(=O)OC[C@@H](NC(=O)c3cnc4ccccc4n3)C(=O)N[C@@H](C)C(=O)N(C)[C@@H]1C(=O)N(C)[C@@H](C(C)C)C(=O)OC[C@@H](NC(=O)c1cnc3ccccc3n1)C(=O)N[C@@H](C)C(=O)N2C` [ECHINOMYCIN]: the Activity with P388 was determined as 0.00147 µg/mL.
Take `O=c1c(-c2ccc(O)cc2)coc2cc(O)cc(O)c12` [GENISTEIN]: the Activity with BXPC-3 worked out at 2.5 µg/mL; with MCF7, 2.5 µg/mL; in the assay on NCI-H460, 1.5 µg/mL; in the assay with KM-20L2, 3.7 µg/mL; in the assay with SF-268 it was 1.7 µg/mL; with DU-145, 1.9 µg/mL.
In the case of `NC1=NC(=O)/C(=C2\CCNC(=O)c3[nH]c(Br)cc32)N1` [HYMENIALDISINE], in the assay on P388, the Activity was found to be 2.4 µg/mL.
With `COc1cc([C@H]2c3cc4c(cc3C[C@H]3COC(=O)[C@H]32)OCO4)cc(OC)c1OC` [ISOPICRODEOXYPODOPHYLLOTOXIN], in the assay with P388, the Activity was less than 0.01 µg/mL.
Same read-out and setting: with `C/C1=C\[C@H](C)C[C@H](C)OC(=O)C[C@H](c2ccc(O)cc2)NC(=O)[C@@H](Cc2c(Br)[nH]c3ccccc23)N(C)C(=O)[C@H](C)NC(=O)[C@@H](C)C1` [JASPAMIDE] the figure was 0.008 µg/mL.
On to `C\C(=C/C=C/C(C)=C1/C(=O)C[C@H]2[C@@]3(C)CCC(=O)C(C)(C)[C@@H]3CC[C@]12C)c1ccc(C)c(=O)o1` [STELLETIN A], for which the Activity in the assay with BXPC-3 amounted to 0.078 µg/mL; with MCF7 it was 0.752 µg/mL; in the assay with P388 it was 0.012 µg/mL.
As for `CC(/C=C/C=C(\C)c1ccc(C)c(=O)o1)=C1/C(=O)C[C@H]2[C@@]3(C)CCC(=O)C(C)(C)[C@@H]3CC[C@]12C` [STELLETTIN B], in the assay on P388, the Activity came to 0.037 µg/mL.
For the molecule `N#Cc1cn([C@@H]2O[C@H](CO)[C@@H](O)[C@H]2O)c2ncnc(N)c12` [TOYOCAMYCIN], the Activity in the assay with P388 was found to be 0.0023 µg/mL.
Same read-out and setting: with `C[C@H]1[C@H](C)CC[C@]2(C(=O)O)CC[C@]3(C)C(=CC[C@@H]4[C@@]5(C)CC[C@H](O)C(C)(C)[C@@H]5CC[C@]43C)[C@H]12` [URSOLIC ACID] the figure was more than 1 µg/mL.

The record behind these values is ChEMBL document CHEMBL1142397, “Antineoplastic agents. 536. New sources of naturally occurring cancer cell growth inhibitors from marine organisms, terrestrial plants, and microorganisms(1a,)” (J Nat Prod, 2008).
